The text below walks through data of patent publication US10913738B2 (BRISTOL-MYERS SQUIBB COMPANY, priority 2017, dated 2021).

Like-named read-outs stand apart in the source and are kept apart here.

In data set [1] the target is T1, His-GST-TVMV-hRIPK1(1-324) (Homo sapiens, UniProt Q13546).
T1 construct: The coding region of human RIPK1(1-324) flanked by NdeI site at 5′ end; made in house; host or cells: Spodoptera frugiperda (Sf9) insect cells, baculovirus
T1 sequence (Q13546 1-324): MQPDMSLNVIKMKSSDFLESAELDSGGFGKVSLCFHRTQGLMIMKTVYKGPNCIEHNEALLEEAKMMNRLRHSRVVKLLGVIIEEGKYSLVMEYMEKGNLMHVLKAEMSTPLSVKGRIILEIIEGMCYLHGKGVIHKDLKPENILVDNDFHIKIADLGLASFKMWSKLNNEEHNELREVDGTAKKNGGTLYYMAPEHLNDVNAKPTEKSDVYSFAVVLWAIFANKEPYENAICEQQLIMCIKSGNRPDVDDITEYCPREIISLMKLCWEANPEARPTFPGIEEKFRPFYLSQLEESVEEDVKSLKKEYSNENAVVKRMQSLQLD
The data set can be described thus: RIPK1 HTRF Binding Assay. On the technique in general: In TR-FRET formats the signal depends on donor and acceptor labels being close together.

Data set [2] relates to MLKL phosphorylation in HT29-L23 human colorectal adenocarcinoma cells. The data set can be described thus: MLKL Phosphorylation High-Content Assay. In kind it is cell-based. Particulars: Homo sapiens. A digest of the protocol: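 IC50 and Ymax obtained by 4-parameter logistic fitting of MLKL phosphorylation, measured as mean circ-ring average intensity ratio from high-content images. Staining used an anti-phospho-S358 MLKL antibody overnight at 4° C., following six-hour cell incubation at 37° C.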

Data set [3] deals with Female C57/Bl6 mice, mTNF + zVAD-fmk induced hypothermia. The data set can be described thus: TNF-Induced Systemic Inflammatory Response Syndrome (SIRS), body temperature. In kind it is in vivo. To be noted: mouse, 3 h after mTNF, relative to 6 mg/kg Nec-1s, read-out: % protection from body temp loss; for inhibition in vivo at 1 mg/kg: 1.0 mg/kg oral gavage 2 h before mTNF; for inhibition in vivo at 0.4 mg/kg: 0.4 mg/kg oral gavage 2 h before mTNF. As to the method: (§1) TNF-Induced Systemic Inflammatory Response Syndrome (SIRS)
(§2) RIPK1 inhibitors were evaluated for efficacy in vivo using a TNF-dependent model of systemic “shock”, also known as systemic inflammatory response syndrome (SIRS) (Duprez et al. 2011, Immunity 35(6):908-918). Intravenous injection of murine TNF induces a systemic inflammatory response characterized by a decrease in body temperature and an increase in circulating cytokines (IL-6, KC) in the serum. The addition of zVAD-fmk strongly sensitizes mice to TNF-induced shock through the inhibition of caspases (Cauwels et al., 2003). The combination of pretreatment with zVAD-fmk prior to injection of mTNF forms the basis of the RIPK1-dependent, TNF-induced, inflammatory response in this model.
(§3) Female C57/Bl6 mice (9 to 11 weeks old) were obtained from Jackson Labs (Bar Harbor, Me.). Mice were housed in BMS' animal facility with ad libitum access to food and water. Mice were and allowed to acclimate for at least 2 weeks and typically weighed at least 21 grams before being used in any studies. Group size was 6 mice per treatment. All experiments were conducted with the approval of BMS' Institutional Animal Care and Use Committee (IACUC)
(§4) Program compounds were dosed by oral gavage 2 h before IV challenge with 20 μg of murine TNF (#CRT192C, Cell Sciences, Canton, Mass.). zVAD-fmk (16.7 mg/kg) was given IV, 15 min before mTNF injection. The RIPK1 kinase inhibitor, necrostatin-1s (Nec-1s) was used as a positive control and was dosed at 6 mg/kg, IV, 30 minutes before mTNF challenge. mTNF was diluted in endotoxin-free PBS and 20 μg/mouse was injected in a volume of 0.1 ml into the retro-orbital sinus. All IV injections were done via the retro-orbital sinus and injection sites were alternated (left and right sides).
Three (3) hours after mTNF injection, mice were assessed for hypothermia and mortality. Rectal body temperature was recorded with an electric thermometer (Acorn Series Model JKT with a Ret-3 probe, Oakton Instruments Vernon Hills Ill. 60061).
(§5) Using these assays, the percent protection of body temperature and percent reduction in IL6 cytokine of the following compounds were determined. See Table B. % Protection is relative to a 6 mg/kg dose of Nec-1s (5-((7-Cl-1H-indol-3-yl)methyl)-3-methylimidazolidine-2,4-dione)).

For data set [4], the system named is IL-6. The data set can be described thus: TNF-Induced SIRS, serum cytokines (IL-6, KC) by ELISA. Particulars: mouse, relative to 6 mg/kg Nec-1s, read-out: % protection from IL6 increase; for inhibition in vivo at 1 mg/kg: 1.0 mg/kg oral gavage 2 h before mTNF; for inhibition in vivo at 0.4 mg/kg: 0.4 mg/kg oral gavage 2 h before mTNF. In kind it is in vivo. As for the experimental part:
as §1, §2, §3, §4
(§6) Blood samples for PK determination were collected into heparinized microtainer blood tubes (Part #365965, Becton Dickinson, Franklin Lakes N.J.) and mixed well. Dried blood spots (DBS) were prepared by pipetting 10 μl of whole blood, in duplicate, onto bioanalysis cards (#GR2261004, Perkin Elmer, Greenville, S.C.). A serum sample was obtained by collecting blood into a separator tube (#450472, Greiner Bio-One, Austria) and centrifuged (10 min at 10,000 RPM) to separate the serum. All blood samples were obtained from the retro-orbital sinus while under isoflurane anesthesia.
Serum cytokines were evaluated by ELISA assay. IL-6 was measured using OPTeia Kit (Becton Dickinson, Franklin Lakes N.J.) while KC was measured using an R&D Duoset kit (R&D Systems Inc. Minneapolis, Minn.)
as §5
For orientation: In an ELISA, binding on a coated surface is turned into a signal by an enzyme label.

Data set [5] in a line: Exposure in TNF-induced SIRS study (blood samples for PK determination). In kind it is in vivo. Particulars: mouse. As to the method: as §4, §6
[6] abbreviates: x marks IC50 class <20 nM, read-out: RIPK1 HTRF binding <20 nM.
Setting [7] is: x marks IC50 class 20-200 nM, read-out: pMLKL cell activity 20-200 nM.
Setting [8] is: x marks IC50 class <20 nM, read-out: pMLKL cell activity <20 nM.
[9] abbreviates: 0.1 mg/kg oral gavage 2 h before mTNF.

For the compound `COc1ncc(-c2ccn3nc(N)nc3c2)cc1C(=O)NCc1cc(OC(F)(F)F)ccc1F` [Example 160, 5-{2-amino-[1,2,4]triazolo[1,5-a]pyridin-7-yl}-N-{[2-fluoro-5-(trifluoromethoxy)phenyl]methyl}-2-methoxypyridin-3-carboxamide], the IC50 was below 0.02 µM in data set [1] (setting [6]) and 0.02 to 0.2 µM in data set [2] (setting [7]). Moreover, the results for the inhibition in vivo at 1 mg/kg in data set [3] and in data set [4] were 107% and 60%, respectively. The “Exposure” value in data set [5] (1.0 mg/kg oral gavage) worked out at 693 nM.

In the case of `COc1ncc(-c2ccn3nc(N)nc3c2)cc1C(=O)NCc1cccc(OC(F)(F)F)c1` [Example 58, 5-{2-Amino-[1,2,4]triazolo[1,5-a]pyridin-7-yl}-2-methoxy-N-{[3-(trifluoromethoxy)phenyl]methyl}pyridine-3-carboxamide], the IC50 in data set [1] (setting [6]) was below 0.02 µM; in data set [2] (setting [7]) it was 0.02 to 0.2 µM. Further, the results for the inhibition in vivo at 0.4 mg/kg in data set [3] and in data set [4] were 113% and 78%, respectively. For the same compound, the “Exposure” value in data set [5] (0.4 mg/kg oral gavage) was determined as 409 nM.

Take `COc1ncc(-c2ccn3nc(N)nc3c2)cc1C(=O)NC(C)c1ccccc1OC(F)(F)F` (single isomer, unassigned) [Example 38-1, 5-{2-Amino-[1,2,4]triazolo[1,5-a]pyridin-7-yl}-2-methoxy-N-{1-[2-(trifluoromethoxy)phenyl]ethyl}pyridine-3-carboxamide]: the IC50 in data set [1] (setting [6]) and in data set [2] (setting [8]) was below 0.02 µM in each case. The inhibition in vivo at 0.1 mg/kg in data set [3] (setting [9]) was determined as 80%; in data set [4] (setting [9]) it was 93%. Also, in data set [5] (0.1 mg/kg oral gavage), the “Exposure” value was determined as 12 nM.

As to `COc1ncc(-c2ccn3nc(N)nc3c2)cc1C(=O)NCCCc1ccccc1` [Example 102, 5-{2-amino-[1,2,4]triazolo[1,5-a]pyridin-7-yl}-2-methoxy-N-(4-phenylpropyl)pyridine-3-carboxamide], the IC50 in data set [1] (x marks IC50 class 20-200 nM, read-out: RIPK1 HTRF binding 20-200 nM) lay within 0.02 to 0.2 µM; in data set [2] (setting [7]) it was 0.02 to 0.2 µM. Also, the results for the inhibition in vivo at 1 mg/kg in data set [3] and in data set [4] were 107% and 82%, respectively. Also, in data set [5] (1.0 mg/kg oral gavage), the “Exposure” value is 1287 nM.

As for `COc1ncc(-c2ccn3nc(N)nc3c2)cc1C(=O)NCc1cc(F)cc(F)c1OCC1CC1` [Example 131, 5-{2-amino-[1,2,4]triazolo[1,5-a]pyridin-7-yl}-N-{[2-(cyclopropylmethoxy)-3,5-difluorophenyl]methyl}-2-methoxypyridine-3-carboxamide], the IC50 in data set [1] (setting [6]) and in data set [2] (setting [8]) was below 0.02 µM in each case. The inhibition in vivo at 0.4 mg/kg in data set [3] is 15%; in data set [4] it was 8%. Moreover, the “Exposure” value in data set [5] (0.4 mg/kg oral gavage) is 50 nM.

As to `Cc1ncc(-c2ccn3nc(N)nc3c2)cc1C(=O)NC(C)c1cccc(OC(F)(F)F)c1` (stereo not drawn) [Example 251, 5-{2-amino-[1,2,4]triazolo[1,5-a]pyridin-7-yl}-2-methyl-N-{1-[3-(trifluoromethoxy)phenyl]ethyl}pyridine-3-carboxamide], the IC50 in data set [2] (setting [7]) is 0.02 to 0.2 µM. The inhibition in vivo at 1 mg/kg in data set [3] stood at 86%; in data set [4], 97%. The “Exposure” value in data set [5] (1.0 mg/kg oral gavage) came out at 1208 nM.

With `COc1ncc(-c2ccn3nc(N)nc3c2)cc1C(=O)NCc1ccccc1OC(F)(F)F` [Example 74, 5-{2-Amino-[1,2,4]triazolo[1,5-a]pyridin-7-yl}-2-methoxy-N-{[2-(trifluoromethoxy)phenyl]methyl}pyridine-3-carboxamide], the IC50 in data set [1] (setting [6]) is below 0.02 µM; in data set [2] (setting [7]) it was 0.02 to 0.2 µM. Also, the inhibition in vivo at 0.4 mg/kg was 115% in data set [3] and 87% in data set [4]. Further, the “Exposure” value in data set [5] (0.4 mg/kg oral gavage) was 117 nM.

On to `COc1ncc(-c2ccn3nc(N)nc3c2)cc1C(=O)N1CCC[C@@H](Cc2ccc(F)cc2)C1` [Example 136, 7-{5-[(3S)-3-[(4-fluorophenyl)methyl]piperidine-1-carbonyl]-6-methoxypyridin-3-yl}-[1,2,4]triazolo[1,5-a]pyridin-2-amine], for which the IC50 in data set [1] (setting [6]) and in data set [2] (setting [8]) was below 0.02 µM each time. Besides, the inhibition in vivo at 0.4 mg/kg came to 106% in data set [3] and 80% in data set [4]. The “Exposure” value in data set [5] (0.4 mg/kg oral gavage) came to 364 nM.
